Reference: patent US5488068A, “Aminobiphenyl-4-ol anti-atherosclerotic compounds and method” (Bristol-Myers Squibb Company, priority 1994, dated 1996)

Tests used:
human LDL [1] = assay: Primary in vitro screen: inhibition of initial rate of Cu++-dependent LDL lipid oxidation, compound directly added to LDL; format: biochemical; conditions: CuSO4 10 μM, 37°, 90 min
Text: (§1) The initial and later stages of LDL oxidation can be distinguished kinetically in vitro by measuring the formation of lipid conjugated diene oxidation products (ref. 10). By analogy to the behavior of antioxidants in simple single-phase systems (ref. 11), in vitro test systems were established to quantitate the protective effects of pure chemical compounds on Cu^++ -dependent LDL oxidation initial rate and lag phase. Both in vitro and ex vivo methods were employed to incorporate compounds into LDL. The magnitude of the decrease in the initial rate of conjugated diene formation was used as an estimate of the intrinsic LDL antioxidant potency of the test compound. The magnitude of the increase in lag time for the propagation phase of the oxidation chain reaction was used as an estimate of the effective concentration within LDL of the test compound. By this approach, quantitative estimation of the LDL antioxidant activity of compounds was used to identify chain-terminating antioxidants appropriate for testing in an in vivo atherosclerosis animal model.
This procedure determined the ability of test compounds added directly to LDL to inhibit the initial rate of LDL lipid oxidation monitored by conjugated diene content. The initial rate of conjugated diene formation was approximately linear with respect to time for approximately 2 hours under the conditions employed, prior to the end of the lag phase characterized by rapid propagation of the radical chain reaction and a corresponding large increase in conjugated diene content of the LDL sample. In the assay, aliquots of compounds dissolved in DMSO (and DMSO vehicle controls) were directly added to isolated human LDL (600 μg protein/mL) in Buffer 1 (10 mM HEPES, 150 mM NaCl, pH 7.2), and incubated at 37° for 60 min. Duplicate samples were then subjected to controlled oxidation by addition of CuSO4 (10 μM) and incubation at 37° for 0 or 90 min. The reaction was quenched by diluting with 5 volumes of buffer 1 plus EDTA (20 μM final) at 0° -4°. The conjugated diene levels in the LDL samples, a quantitative indicator of lipid peroxidation rate and extent, was determined spectrophotometrically by absorbance at 234 nm for each sample at 0 min and at 90 min time points of the CuSO4 incubation. […] Results are given in Table 1; a decrease vs. control reflects an active antioxidant.

human LDL [2] = assay: Secondary in vitro screen: LDL oxidation initial rate and lag time after in vitro plasma incorporation of compound into LDL; format: biochemical; conditions: 25 μM in plasma incorporation; CuSO4 2.5 μM, 20°
Text: as §1
(§2) A plasma incorporation technique was used in this procedure to test for the partitioning of a compound into LDL and its retention during LDL isolation by ultracentrifugation and dialysis. The antioxidant activity remaining in LDL was then assayed by measuring the initial rate of Cu^++ -dependent conjugated diene formation, and the lag time before extensive formation of conjugated diene oxidation products. Incorporation of test compounds into LDL in vitro was achieved by addition of an aliquot of compound (final concentration 25 μM) in DMSO to aliquots of pooled human plasma previously dialyzed overnight in buffer 1 (10 mM HEPES, 150 mM NaCl, pH 7.2) and adjusted to d=1.019 with solid KBr, and incubating for 60 min at 37°. LDL was then isolated from plasma as the ([…] to d=1.063 g/ml) fraction by standard sequential flotation techniques using KBr solution discontinuous density gradients in an ultracentrifuge by a method adapted from the original procedure of Havel (J. Clin. Invest. 34:1345). The isolated LDL was dialyzed for 1 hour into buffer 1, and aliquots were added to cuvettes at 100 μg protein/ml in buffer 1. Oxidation reactions were initiated with CuSO4 (2.5 μM) at 20°. The LDL initial oxidation rate and lag time were measured by continuous monitoring of absorbance at 234 nm in a Beckman DU-7500 spectrophotometer. The initial oxidation rate was calculated as the slope of the linear regression curve of A234 vs. time over the first ~60 min. Percent of control was calculated for test compound vs. DMSO vehicle controls. Lag time was calculated as the time corresponding to the maximum value of the first derivative of the A234 vs. time curve. The value of the lag time from the A234 vs. time curve for test compounds compared to vehicle control was expressed as percent of control. Results are given in Table 2; a decrease vs. control in the initial rate, and an increase vs. control in the lag time, reflect an active antioxidant.

LDL [3] = assay: Ex vivo LDL oxidation susceptibility assay in hamsters after 2 weeks oral administration; conditions: hamster; for ex vivo LDL oxidation initial rate / ex vivo LDL oxidation lag time: oral in diet, mean of 4 to 6 hamsters
Text: as §1, §2
Compounds were administered orally to hamsters for 2 weeks using the same diet described for the atherosclerosis studies (part D.) At 2 weeks, hamsters were fasted overnight, blood was collected, and LDL was isolated as described above (part B). The same assay methods described above (part B.) were then used to obtain ex vivo LDL oxidation initial rate and lag time values. Results are given in Table 3; a decrease vs. control in the initial rate, and an increase in the lag time, reflect an active antioxidant.

[4] = test system: aortic foam cell atherosclerosis lesion; assay: In vivo atherosclerosis model in hamsters: aortic foam cell lesion size after 10 weeks; conditions: hamster; for aortic lesion size: oral in diet, mean ± SEM, n=12
Method: Atherosclerosis in hamsters is confined initially to a lesion prone area along the inner curvature of the aortic arch. Early atherogenesis in this region is characterized by the infiltration of monocytes which become lipid-filled macrophage foam cells, which can develop into complex fibrous atheromas. Antioxidants selected from primary and secondary in vitro screens and ex vivo assays were tested for their ability to inhibit macrophage foam cell lesion formation in hamsters in 10 weeks studies. Lesion size was assayed by video microscopy/image analysis of histological specimens of the aortic arch stained with the lipophilic dye, oil red O. Hamsters were maintained on a diet deficient in vitamins E, C, and K/menadione, selenium, and carotenoids, and supplemented with vitamin E-stripped corn oil (10%) and cholesterol (0.4%). This diet amplified oxidant stress while only moderately elevating plasma cholesterol and LDL levels. Test compounds were administered in this diet fed ad libitum for 10 weeks. The dosages are given as mg/kg/day based on food consumption measurements and weight of the animals at the end of the 10 week dosing period. […] Results are given in Table 4; a decrease in lesion size relative to control indicates an effective anti-atherosclerotic agent.

arterial lesion = conditions: animal models of atherosclerosis, high doses; cited from earlier work
LDL [5] = conditions: animal models of atherosclerosis, high doses; cited from earlier work
aortic lesions = conditions: cited from earlier work
LDL [6] = conditions: rabbit, in vivo; cited from earlier work

| Compound | LDL oxidation initial rate (human LDL [1]; 1.0 μM) | LDL oxidation initial rate (human LDL [2]) | LDL oxidation lag time (human LDL [2]) | ex vivo LDL oxidation initial rate (LDL [3]; 60 mg/kg/day) | ex vivo LDL oxidation lag time (LDL [3]; 60 mg/kg/day) | aortic lesions in rabbits (aortic lesions) | protection of LDL from oxidation (LDL [6]) | also measured |
| --- | --- | --- | --- | --- | --- | --- | --- | --- |
| CC(C)(Sc1cc(C(C)(C)C)c(O)c(C(C)(C)C)c1)Sc1cc(C(C)(C)C)c(O)c(C(C)(C)C)c1 [probucol] | 79 % of control | 17.6 % of control | 293 % of control |  |  |  |  | ex vivo LDL oxidation initial rate (LDL [3]; 120 mg/kg/day): 70 % of control; ex vivo LDL oxidation lag time (LDL [3]; 120 mg/kg/day): 141 % of control; aortic lesion size ([4]; 120 mg/kg/day): 59.4 ± 6.4 % of control; arterial lesion size (arterial lesion): decreased arterial lesion size; oxidation of LDL in vivo (LDL [5]): decrease oxidation of LDL in vivo |
| COc1ccc(O)c(C(C)(C)C)c1 [BHA, butylated hydroxyanisole] | 16 % of control | 11.0 % of control | 239 % of control | 77 % of control | 116 % of control |  |  |  |
| Cc1cc(C(C)(C)C)c(O)c(C(C)(C)C)c1 [butylated hydroxytoluene (BHT), butylated hydroxytoluene] |  |  |  |  |  | decrease aortic lesions in rabbits | protect LDL from oxidation |  |
| CN(C)c1cc(-c2ccccc2)ccc1O [Example 1, 3-(Dimethylamino)[1,1'-biphenyl]-4-ol] | 42.2 % of control | 17.9 % of control | 237 % of control | 17 % of control | 482 % of control |  |  | LDL oxidation initial rate (human LDL [1]; 0.30 μM): 66.2 % of control; LDL oxidation initial rate (human LDL [1]; 3.0 μM): 34.0 % of control; LDL oxidation initial rate (human LDL [1]; 10 μM): 1.7 % of control; ex vivo LDL antioxidant activity relative to probucol and BHA (LDL [3]; oral): markedly more active in this model than the reference agents probucol and BHA; anti-atherosclerotic effectiveness relative to probucol ([4]; oral): markedly more effective than the reference agent probucol; aortic lesion size ([4]; 3 mg/kg/day): 71.7 ± 13.7 % of control; aortic lesion size ([4]; 60 mg/kg/day): 46.2 ± 6.2 % of control |
| c1ccc(Nc2ccc(Nc3ccccc3)cc2)cc1 [N,N'-diphenylphenylenediamine (DPPD), N,N'-diphenylphenylenediamine] |  |  |  |  |  | decrease aortic lesions in rabbits | protect LDL from oxidation |  |
